Earlier results as cited in patent US20080269334A1, “Highly Concentrated Pourable Aqueous Solutions Of Potassium Ibuprofen, Their Preparation And Their Use” (ALBEMARLE CORPORATION, priority 2005, published 2008).

Structure (SMILES): CC(C)Cc1ccc(C(C)C(=O)O)cc1 (stereo not drawn) [ibuprofen]
- solubility of ibuprofen in a solvent system (402 mg ibuprofen, 100 mg PEG 600, 3.3 wt % glycerin or propylene glycol, 6.4 wt % water, 38.4 mg KOH, U.S. Pat. Nos. 5,071,643 and 5,360,615): 67%

Structure (SMILES): CC(C)Cc1ccc(C(C)C(=O)[O-])cc1.[K+] (stereo not drawn) [potassium ibuprofen, potassium 2-(4-isobutylphenyl)propionate]
- concentration of dissolved potassium ibuprofen (U.S. Pat. No. 5,912,011 Table 1, system with 35.2 wt % ibuprofen, 33.3 wt % PEG 600, 7.3 wt % water): 24.2 wt %
- maximum concentration of dissolved potassium ibuprofen shown (U.S. Pat. No. 6,387,400, polyethylene glycol solvent, less than about 50 mole % of ibuprofen converted to the potassium salt): about 24.2 wt %
